“Also recorded” adds a separate entry of the source.
What was measured:
17β-HSD1 = target: T1, 17β-HSD1 (Homo sapiens, UniProt P14061); assay: 17β-HSD1 activity in HEK-293 cell lysates; format: biochemical; details: ratio of IC50 values
T1 construct: expressed in transfected cells; host or cells: HEK-293 (transient, calcium phosphate), lysate
T1 sequence (P14061 1-328): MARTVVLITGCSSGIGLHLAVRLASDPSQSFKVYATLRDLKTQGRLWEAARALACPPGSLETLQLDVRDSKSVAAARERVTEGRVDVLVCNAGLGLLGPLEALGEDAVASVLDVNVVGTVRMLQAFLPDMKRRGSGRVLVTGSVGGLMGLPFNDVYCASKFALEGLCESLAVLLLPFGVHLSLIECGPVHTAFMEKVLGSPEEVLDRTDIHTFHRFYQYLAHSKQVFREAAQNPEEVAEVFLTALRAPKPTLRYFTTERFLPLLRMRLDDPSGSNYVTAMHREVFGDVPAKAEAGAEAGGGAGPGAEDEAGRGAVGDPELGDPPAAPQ
Experimental: HEK-293 cells were transfected by the calcium phosphate precipitation method with plasmids for human 17β-HSD1, 17β-HSD2, or 11β-HSD2. Cells were cultivated for 48 h, washed with phosphate-buffered saline, and centrifuged for 4 min at 150g. After removal of the supernatants, cell pellets were snap frozen in dry ice and stored at −80 °C until further use.
Lysates of human embryonic kidney cells (HEK-293) expressing either 17β-HSD1 or 17β-HSD2 were incubated for 10 min at 37 °C in TS2 buffer in a final volume of 22 μL containing either solvent (0.2% DMSO/chloroform) or the inhibitor at the respective concentration. N-(3-Methoxyphenyl)-N-methyl-5-m-tolylthiophene-2-carboxamide (compound 19 in ref ([26])) and apigenin[50] were used as positive controls for 17β-HSD1 and 17β-HSD2, respectively, in all experiments. 17β-HSD1 activity was measured in the presence of 190 nM unlabeled estrone, 10 nM radiolabeled estrone, and 500 μM NADPH. In contrast, 17β-HSD2 activity was determined in the presence of 190 nM unlabeled estradiol, 10 nM radiolabeled estradiol, and 500 μM NAD^+. Reactions were stopped after 10 min by adding an excess of unlabeled estradiol and estrone (1:1, 2 mM in methanol). Possible promiscuous enzyme inhibition by aggregate formation of the chemicals was excluded by measuring the inhibition of the enzyme activity by the compounds in the presence of 0.1% Triton X-100.[36] […]

17β-HSD3 = target: T2, 17β-HSD3 (Homo sapiens, UniProt P37058); assay: 17β-HSD3 activity in intact transfected HEK-293 cells; format: cell-based
T2 construct: expressed in transfected cells; host or cells: HEK-293 (transient, calcium phosphate), intact cells
T2 sequence (P37058 1-310): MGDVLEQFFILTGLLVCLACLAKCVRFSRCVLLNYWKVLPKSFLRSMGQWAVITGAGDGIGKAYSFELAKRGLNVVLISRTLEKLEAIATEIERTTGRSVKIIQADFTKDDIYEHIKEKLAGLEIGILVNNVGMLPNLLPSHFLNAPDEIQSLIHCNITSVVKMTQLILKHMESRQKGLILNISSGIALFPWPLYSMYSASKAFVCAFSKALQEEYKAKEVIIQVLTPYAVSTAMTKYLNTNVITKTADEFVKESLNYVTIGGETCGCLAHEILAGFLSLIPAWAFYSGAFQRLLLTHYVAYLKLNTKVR
Experimental: (§1) Human embryonic kidney cells (HEK-293) were cultivated in DMEM containing 4.5 g/L glucose, 10% fetal bovine serum, 100 U/mL penicillin, 0.1 mg/mL streptomycin, 1× MEM nonessential amino acids, and 10 mM HEPES buffer, pH 7.4. The cells were incubated at 37 °C until 80% confluency. The cells were transfected using the calcium phosphate method with expression plasmids for 17β-HSD2 and 17β-HSD3. After 24 h, the cells were trypsinized and seeded on poly-L-lysine-coated 96-well plates (15 000 cells/well).
(§2) The inhibitory activities were measured 24 h after seeding as follows: old medium was aspirated and replaced by 30 μL of charcoal-treated DMEM (cDMEM). Ten microliters of inhibitor dissolved in cDMEM into the respective concentration was added, and mixtures were preincubated at 37 °C for 20 min. 17β-HSD2 inhibitory activities were measured in the presence of 190 nM unlabeled estradiol and 10 nM radiolabeled estradiol. N-(3-Methoxyphenyl)-N-methyl-5-m-tolylthiophene-2-carboxamide (compound 19 in ref ([26])) was used as positive control. The reaction mixtures were incubated for 20 min, and the reactions were stopped by adding an excess of estradiol and estrone (1:1, 2 mM in methanol) to the mixture.
17β-HSD3 inhibitory activities were measured in the presence of 190 nM unlabeled androstenedione and 10 nM radiolabeled androstenedione. Benzophenone-1 was used as positive control. The reaction mixtures were incubated for 30 min, and the reactions were stopped by adding an excess of androstenedione and testosterone (1:1, 2 mM in methanol). The steroids were separated by TLC, followed by scintillation counting and calculation of substrate concentration. Data was obtained from three independent measurements.

11β-HSD1 = target: T3, 11β-HSD1 (Homo sapiens, UniProt P28845); assay: 11β-HSD1 activity in lysates of stably transfected cells; format: biochemical
T3 construct: expressed in transfected cells
Experimental: The methods to determine 11β-HSD1 and -2 activity were performed as described previously.[64] Briefly, lysates of stably transfected cells, expressing either 11β-HSD1 or 11β-HSD2, were incubated for 10 min at 37 °C in TS2 buffer in a final volume of 22 μL containing either solvent (0.2% DMSO) or the inhibitor at the respective concentration. The nonselective 11β-HSD inhibitor glycyrrhetinic acid was used as positive control. Activity measurements of 11β-HSD1 were performed with 190 nM unlabeled cortisone, 10 nM radiolabeled cortisone, and 500 μM NADPH. To measure 11β-HSD2 activity, lysates were incubated with 40 nM unlabeled cortisol, 10 nM radiolabeled cortisol, and 500 μM NAD^+. Reactions were stopped after 10 min by adding an excess of unlabeled cortisone and cortisol (1:1, 2 mM in methanol). The steroids were separated by TLC, followed by scintillation counting and calculation of substrate concentration. Data were collected from at least three independent measurements.

17β-HSD2 = target: T4, 17β-HSD2 (Homo sapiens, UniProt P37059); assay: 17β-HSD2 activity in intact transfected HEK-293 cells; format: cell-based; details: intact HEK-293 cells
T4 construct: expressed in transfected cells; host or cells: HEK-293 (transient, calcium phosphate), lysate
T4 sequence (P37059 1-387): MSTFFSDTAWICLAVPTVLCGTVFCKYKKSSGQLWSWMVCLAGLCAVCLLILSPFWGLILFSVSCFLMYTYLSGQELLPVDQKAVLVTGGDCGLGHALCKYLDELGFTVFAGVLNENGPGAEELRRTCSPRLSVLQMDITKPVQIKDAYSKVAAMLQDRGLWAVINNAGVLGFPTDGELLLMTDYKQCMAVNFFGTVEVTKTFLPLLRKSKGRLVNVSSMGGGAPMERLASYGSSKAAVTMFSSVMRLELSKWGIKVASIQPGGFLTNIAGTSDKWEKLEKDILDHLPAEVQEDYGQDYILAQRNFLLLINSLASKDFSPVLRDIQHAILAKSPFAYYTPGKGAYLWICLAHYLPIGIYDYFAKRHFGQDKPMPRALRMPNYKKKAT
Experimental: as §1, §2

T3 sequence (P28845 whole entry): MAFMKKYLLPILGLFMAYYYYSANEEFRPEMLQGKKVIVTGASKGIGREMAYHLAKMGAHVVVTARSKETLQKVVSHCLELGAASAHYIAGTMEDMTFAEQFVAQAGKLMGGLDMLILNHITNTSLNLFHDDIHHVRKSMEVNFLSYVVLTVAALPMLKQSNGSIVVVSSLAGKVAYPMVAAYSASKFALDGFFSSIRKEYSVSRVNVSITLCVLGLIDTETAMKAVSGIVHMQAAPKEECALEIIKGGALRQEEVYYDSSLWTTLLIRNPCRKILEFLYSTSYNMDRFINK

With `Cc1cc(S(=O)(=O)Nc2cccc(O)c2)c(C)cc1Cl` [Compound 22] the “selectivity: more active toward 17β-HSD2 than 17β-HSD1” value (17β-HSD1) was 18 fold and the “17β-HSD3 inhibition (in words)” value (17β-HSD3; intact cells) was “weak 17β-HSD3 inhibitors”.

In the case of `COc1ccc(S(=O)(=O)Nc2ccc(O)c3c2CCCC3)cc1` [Compound 20], the “11β-HSD1 versus 17β-HSD2 potency (in words)” value (11β-HSD1; lysates) is reported as “almost equipotent toward 17β-HSD2 and 11β-HSD1; also recorded: equipotent 17β-HSD2 and 11β-HSD1 inhibitors” and the “17β-HSD3 intact inhibition class (n.i.)” value (17β-HSD3; rest activity at 20 μM, Table 3) is reported as “n.i”.

In the case of `CC(C)(C)c1ccc(S(=O)(=O)Oc2ccccc2O)cc1` [Compound 12], the “selectivity 11β-HSD1 against 17β-HSD2” value (11β-HSD1; ratio of IC50 values) is reported as 9 fold, the “selectivity 17β-HSD3 against 17β-HSD2” value (17β-HSD3; ratio of IC50 values) is reported as 35 fold and the “17β-HSD2 inhibition in intact cells (in words)” value (17β-HSD2) is reported as “concentration-dependently inhibited 17β-HSD2”.
